Measurements: paper PMC6923765, “Structural Design, Synthesis, and Preliminary Biological Evaluation of Novel Dihomooxacalix[4]arene-Based Anti-tumor Agents” (Frontiers in Chemistry, 2019)

Legend:
[1] = system: HUVEC cells (human umbilical vein endothelial cells); assay: SRB cytotoxicity assay, HUVEC normal cells; assay type: cell-based; details: Homo sapiens, HUVEC, 72 h, 10 μM, SRB; toxicity to normal cells
Protocol: (§1) A549 cells (human lung carcinoma cells), MCF-7 cells (human breast cancer cells), HeLa cells (human cervical cancer cells), HepG2 cells (human hepatocellular carcinoma cells), and HUVEC cells (human umbilical vein endothelial cells) were kindly provided by WeiFang Caleb Pharmaceuticals, Inc. A549 cells were cultured in Ham's F12K medium containing 10% fetal bovine serum, 2 mM L-glutamine, and 1.5 g/L sodium bicarbonate; MCF-7 cells were cultured on cell culture flask using RPMI 1640 medium with 2 mM L-glutamine adjusted to contain 1.5 g/L sodium bicarbonate, 4.5 g/L glucose, 10 mM HEPES, 1.0 mM sodium pyruvate, and 10% fetal bovine serum. Hela cells were cultured on Cell culture flask using 2 mM L-glutamine adjusted to contain 1.5 g/L sodium bicarbonate, 4.5 g/L glucose, 10 mM HEPES, and 1.0 mM sodium pyruvate in RPMI 1640 medium supplemented with 0.5 mg/ml G418 and 10% fetal bovine serum. HepG2 cells were cultured in minimum essential medium (Eagle) with 2 mM L-glutamine, Earle's BSS, 1.5 g/L sodium bicarbonate, 0.1 mM non-essential amino acids, 1.0 mM sodium pyruvate, and 10% fetal bovine serum. HUVEC cells were cultured in M199 medium containing 2 mM L-glutamine adjusted to contain 1.5 g/L sodium bicarbonate, 4.5 g/L glucose, 10 mM HEPES, 1.0 mM sodium pyruvate, ECGS, and 10% fetal bovine serum. All cells were cultured at 37°C in 5% CO2.
(§2) The cell proliferation of adherent cells was determined by sulforhodamine B assay (SRB) (Quan et al., [2009]; Li et al., [2017]). All cells were cultured in culture medium containing 10% fetal bovine serum and have been in the logarithmic growth phase. All cell types were seeded in a 96-well culture plate at a concentration of 1–5 × 10^4 cells per well at 37°C in a 5% CO2 incubator for 24 h. The cells were then exposed to seven drug concentrations of dihomooxacalix[4]arene derivatives for 72 h with each concentration located in three wells. Then, the cells were fixed with trichloroacetic acid (TCA). After washing, SRB working solution was added to the cells to […]. SRB combined with protein was dissolved in Tris base. OD values were measured for each well with a SPECTRA max 190 Cell microplate reader under 540 nm wavelength. According to the OD value, the cell growth inhibition rate was calculated.

[2] = system: A549, MCF-7, HeLa and HepG2 cells; assay: SRB cytotoxicity assay, four tumor cell types taken together; assay type: cell-based; details: Homo sapiens, 72 h, range over A549, MCF-7, HeLa, read-out: single concentration inhibition on the four tumor cells
Protocol: as §1, with “HepG2 cells were cultured in minimum essential medium (Eagle) with 2 mM L-glutamine, Earle's BSS, 1.5 g/L sodium bicarbonate, 0.1 mM non-essential amino acids, 1.0 mM sodium pyruvate, and 10% fetal bovine serum. HUVEC cells were cultured in M199 medium containing 2 mM L-glutamine adjusted to contain 1.5 g/L sodium bicarbonate, 4.5 g/L glucose, 10 mM HEPES, 1.0 mM sodium pyruvate, ECGS, and 10% fetal bovine serum. All cells were cultured at 37°C in 5% CO2.” left out
The cell proliferation of adherent cells was determined by sulforhodamine B assay (SRB) (Quan et al., [2009]; Li et al., [2017]). […] OD values were measured for each well with a SPECTRA max 190 Cell microplate reader under 540 nm wavelength. According to the OD value, the cell growth inhibition rate was calculated.

[3] = system: MCF-7 cells (human breast cancer cells); assay: SRB cytotoxicity assay, MCF-7 cells; assay type: cell-based; details: SRB; for inhibition at 10 µM: MCF7, 10 μM, 72 h; for IC50: MCF7, 72 h, read-out: IC50 (μM) MCF-7
Protocol: as §1, §2

MCF-7 cells [4] = assay: Flow cytometry for cell apoptosis analysis (annexin V-FITC/PI); assay type: cell-based, human; details: 48 h, non-treated 14.50 ± 0.68%
Protocol: MCF-7 cells (5 × 10^5 cells/ml) were seeded in six-well plates and treated with compounds at different concentrations for 48 h. The cells were then harvested by trypsinization and washed twice with cold PBS. After centrifugation and removal of the supernatants, cells were resuspended in 400 μl of 1 × binding buffer, which was then added to 5 μl of annexin V-FITC and incubated at room temperature for 15 min. After adding 10 μl of PI, the cells were incubated at room temperature for another 15 min in the dark. The stained cells were analyzed by a flow cytometer (BD Accuri C6).

[5] = system: A549 cells (human lung carcinoma cells); assay: SRB cytotoxicity assay, A549 cells; assay type: cell-based; details: 72 h, SRB; for IC50: read-out: IC50 (μM) A549
Protocol: as §1, §2

[6] = system: HeLa cells (human cervical cancer cells); assay: SRB cytotoxicity assay, HeLa cells; assay type: cell-based; details: 72 h, SRB; for IC50: read-out: IC50 (μM) HeLa
Protocol: as §1, §2

MCF-7 cells [7] = assay: Flow cytometry for cell cycle analysis (PI); assay type: cell-based, human; details: 3 μM, 48 h; for percentage of cells in G0/G1 phase: non-treated 61.36 ± 3.65%
Protocol: For flow cytometric analysis of DNA content, MCF-7 cells in exponential growth were treated with compound for 48 h. The cells treated with compound were collected, washed twice with PBS, and then fixed with 75% alcohol overnight. Then, the cells were washed with PBS and resuspended in 100 μl of PBS, 200 mg/ml RNase was added for 30 min to eliminate the interference of RNA, and 20 ml/L propidium iodide (PI; Sigma) was added for 30 min. Then, the cells were washed, and the DNA content was detected by a flow cytometer (BD Accuri C6).

[8] = system: HepG2 cells (human hepatocellular carcinoma cells); assay: SRB cytotoxicity assay, HepG2 cells; assay type: cell-based; details: 72 h, SRB; for IC50: read-out: IC50 (μM) HepG2
Protocol: as §1, §2

Structure (SMILES)	inhibition at 10 µM [1] [%]	inhibition at 10 µM [2] [%]	melting point [°C]	inhibition at 10 µM [3] [%]	IC50 [3] [µM]	apoptotic rate (MCF-7 cells [4]; 1 μM) [%]	apoptotic rate (MCF-7 cells [4]; 3 μM) [%]	apoptotic rate (MCF-7 cells [4]; 10 μM) [%]	inhibition at 10 µM [5] [%]	IC50 [5] [µM]	inhibition at 10 µM [6] [%]	IC50 [6] [µM]	percentage of cells in G2/M phase (MCF-7 cells [7]; non-treated 10.06 ± 0.91) [%]	percentage of cells in S phase (MCF-7 cells [7]; non-treated 24.69 ± 6.30%) [%]	percentage of cells in G0/G1 phase (MCF-7 cells [7]) [%]	inhibition at 10 µM [8] [%]	IC50 [8] [µM]
CC(C)(C)c1cc2c(O)c(c1)Cc1cc(C(C)(C)C)cc(c1OCC(=O)NCCO)Cc1cc(C(C)(C)C)cc(c1O)Cc1cc(C(C)(C)C)cc(c1OCC(=O)NCCO)COC2 [Compound 4A, 7,13,19,25-tetra-tert-butyl-28,30-di-hydroxy-27,29-di-(N-(2-hydroxyethyl)-aminocarbonylmethoxyl)-2,3-dihomo-3-oxacalix[4]arene]	41	86 to 100	139.7 to 142.3	100	1 ± 0.1	19.63 ± 0.11	15.40 ± 0.13	40.74 ± 0.38	100	2 ± 0.5	100	0.8 ± 0.2	1.87 ± 2.45	20.68 ± 13.12	71.39 ± 11.21	86	2.7 ± 0.4
CC(C)(C)c1cc2c(O)c(c1)Cc1cc(C(C)(C)C)cc(c1OCC(=O)NCCc1ccccc1)Cc1cc(C(C)(C)C)cc(c1O)Cc1cc(C(C)(C)C)cc(c1OCC(=O)NCCc1ccccc1)COC2 [Compound 4O, 7,13,19,25-tetra-tert-butyl-28,30-di-hydroxy-27,29-di-(N-phenethyl-aminocarbonylmethoxyl)-2,3-dihomo-3-oxacalix [4]arene]	35	–	114.6 to 115.9	45	–	–	–	–	63	12.6 ± 2	60	–	–	–	–	9	–
CCCCCNC(=O)COc1c2cc(C(C)(C)C)cc1Cc1cc(C(C)(C)C)cc(c1O)Cc1cc(C(C)(C)C)cc(c1OCC(=O)NCCCCC)Cc1cc(C(C)(C)C)cc(c1O)COC2 [Compound 4L, 7,13,19,25-tetra-tert-butyl-28,30-di-hydroxy-27,29-di-(N-pentyl-aminocarbonylmethoxyl)-2,3-dihomo-3-oxacalix[4] arene]	12	–	117.7 to 119.3	41	–	–	–	–	66	1.7 ± 0.4	49	–	–	–	–	18	–
CC(C)(C)c1cc2c(O)c(c1)Cc1cc(C(C)(C)C)cc(c1OCC(=O)NCc1ccccc1)Cc1cc(C(C)(C)C)cc(c1O)Cc1cc(C(C)(C)C)cc(c1OCC(=O)NCc1ccccc1)COC2 [Compound 4N, 7,13,19,25-tetra-tert-butyl-28,30-di-hydroxy-27,29-di-(N-benzyl-aminocarbonylmethoxyl)-2,3-dihomo-3-oxacalix[4] arene]	21	–	183.7 to 186.4	43	–	–	–	–	64	6.8 ± 0.5	49	–	–	–	–	10	–
CC(C)(C)c1cc2c(O)c(c1)Cc1cc(C(C)(C)C)cc(c1OCC(=O)N(CCO)CCO)Cc1cc(C(C)(C)C)cc(c1O)Cc1cc(C(C)(C)C)cc(c1OCC(=O)N(CCO)CCO)COC2 [Compound 4B, 7,13,19,25-tetra-tert-butyl-28,30-di-hydroxy-27,29-di-(N,N-bis(2-hydroxyethyl)-aminocarbonylmethoxyl)-2,3-dihomo−3-oxacalix[4]arene]	23	–	210.7 to 212.5	73	4.4 ± 0.7	–	–	–	66	3.9 ± 0.5	100	1.1 ± 0.5	–	–	–	39	3.8 ± 0.3
CC(C)(C)c1cc2c(O)c(c1)Cc1cc(C(C)(C)C)cc(c1OCC(=O)NCCCCN)Cc1cc(C(C)(C)C)cc(c1O)Cc1cc(C(C)(C)C)cc(c1OCC(=O)NCCCCN)COC2 [Compound 4C, 7,13,19,25-tetra-tert-butyl-28,30-di-hydroxy-27,29-di-(N-(4-aminobutyl)-aminocarbonylmethoxyl)-2,3-dihomo-3-oxacalix[4] arene]	55	–	129.4 to 131.2	78	5.4 ± 2.6	–	–	–	42	3.3 ± 0.7	96	2.3 ± 0.1	–	–	–	64	5 ± 0.8
CC(C)(C)c1cc2c(O)c(c1)Cc1cc(C(C)(C)C)cc(c1OCC(=O)NCCCCCCN)Cc1cc(C(C)(C)C)cc(c1O)Cc1cc(C(C)(C)C)cc(c1OCC(=O)NCCCCCCN)COC2 [Compound 4D, 7,13,19,25-tetra-tert-butyl-28,30-di-hydroxy-27,29-di-(N-(6-aminohexyl)-aminocarbonylmethoxyl)-2,3-dihomo-3-oxa calix[4] arene]	90	–	123.3 to 125.9	99	1.8 ± 0.7	–	33.55 ± 0.78	61.15 ± 2.76	99	0.7 ± 0.1	100	1.9 ± 0.1	–	–	73.56 ± 3.95	72	2.6 ± 0.2
